# Measurements as given in patent publication US7956060B2, “Pyrimidine derivative compound” (Kyowa Hakko Kirin Co., Ltd., priority 2004, dated 2011).
# System: human acute myeloid leukemia cell line MV-4-11
# Experiment: Cytostatic activity on leukemia cell line (WST-1 assay)
# Assay type: cell-based
# Details: MV-4-11 cells, test compound 10 μmol/L, 72 hours
# Procedure: The cytostatic rate (%) of a test compound on human acute myeloid leukemia cell line MV-4-11 was determined in the following manner.
# Each cell was cultured using Roswell Park Memorial Institute's Medium (RPMI) 1640 (Gibco, Catalog No. 11875-093) containing 10% fetal bovine serum (Gibco, Catalog. No. 10437-028) and 1% penicillin/streptomycin (1:1) (Gibco, Catalog No. 15140-122). Each 80 μL of the MV-4-11 cell having a concentration of 7.5×10^4 cells/mL (or K562 cell having a concentration of 2.5×10^4 cells/mL) was inoculated to wells of a TC MICROWELL 96U plate (Nalge Nunc International, Catalog No. 163320) and was cultured in a 5% carbon dioxide gas incubator at 37° C. for 4 hours. As a blank, only RPMI medium (80 μL) was added to a well. […] Then, the absorbances at 450 nm (reference wavelength: 690 nm) were determined with a microplate spectrophotometer SPECTRA max 340PC (Molecular Devices Corporation). The relative growth (%) of a well to which the test compound had been added was determined while setting the absorbance of a well to which not the test compound but DMSO alone had been added (control) at 100% and that of a well containing RPMI medium alone at 0%. The cytostatic rate (%) of the test compound was determined by subtracting the calculated relative growth from 100.
smiles,measurement,value
CCNc1nc(NCCc2ccncc2)ncc1-c1nnc(CN2CCN(C)CC2)o1 [Compound 4-32],"cytostatic rate MV-4-11 (%, 10 μmol/L)",99%
